Experimental data taken from ChEMBL document CHEMBL1201862, “PubChem BioAssay data set” (2004).
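The compound was tested at five concentrations on cells cultured in 96-well plates, with a 48-hour exposure period. GI50: concentration for 50% inhibition of growth.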 The source made the active and inactive calls. No stated cut-off is given here; in the data, active = GI50 up to about 1.1 µM and inactive = higher.

How the values were obtained:
Experiment in all cases: inhibition of tumour cell growth, NCI panel, 48 h
COLO 205 = system: COLO 205
HOP-62 = system: HOP-62
HT-29 = system: HT-29
IGROV-1 = system: IGROV-1
KM12 = system: KM12
MOLT-4 = system: MOLT-4
OVCAR-4 = system: OVCAR-4
RPMI-8226 = system: RPMI-8226
SF-295 = system: SF-295
SK-MEL-5 = system: SK-MEL-5
SK-OV-3 = system: SK-OV-3
SN12C = system: SN12C
SNB-78 = system: SNB-78
UACC-62 = system: UACC-62
NCI-H226 = system: NCI-H226

Measured: GI50

c1ccc2c(c1)C1=NCCN1c1ccccc1-2
inactive: COLO 205 1.38 µM | HOP-62 3.25 µM | HT-29 2.41 µM | IGROV-1 3.44 µM | KM12 2.96 µM | MOLT-4 1.85 µM | OVCAR-4 2.91 µM | RPMI-8226 2.32 µM | SF-295 5.09 µM | SK-MEL-5 2.49 µM | SK-OV-3 4.9 µM | SN12C 2.45 µM | SNB-78 4 µM | UACC-62 3.37 µM

COc1ccc(/C=C/COC(C)=O)cc1OC
inactive: COLO 205 > 100 µM | HT-29 > 100 µM | IGROV-1 > 100 µM | KM12 > 100 µM | MOLT-4 > 100 µM | NCI-H226 > 100 µM | OVCAR-4 > 100 µM | RPMI-8226 > 100 µM | SF-295 > 100 µM | SK-MEL-5 > 100 µM | SK-OV-3 > 100 µM | SN12C > 100 µM | SNB-78 > 100 µM | UACC-62 > 100 µM

C[N+]1(C)C/C(=C/c2ccc(F)cc2)C(=O)/C(=C\c2ccc(F)cc2)C1
inactive: COLO 205 60.7 µM | HOP-62 > 100 µM | IGROV-1 26.1 µM | KM12 67.8 µM | MOLT-4 15.4 µM | OVCAR-4 > 100 µM | RPMI-8226 24.4 µM | SF-295 50.6 µM | SK-OV-3 > 100 µM | SN12C 2.14 µM | SNB-78 > 100 µM | UACC-62 13.8 µM

O=C1CCCC(O)=C1SC1=C(O)CCCC1=O
inactive: COLO 205 > 100 µM | HT-29 72.8 µM | IGROV-1 > 100 µM | KM12 > 100 µM | MOLT-4 > 100 µM | NCI-H226 > 100 µM | OVCAR-4 > 100 µM | RPMI-8226 > 100 µM | SF-295 > 100 µM | SK-MEL-5 > 100 µM | SK-OV-3 > 100 µM | SN12C 74 µM | SNB-78 > 100 µM | UACC-62 46.9 µM

Cn1c(=O)c2nc3sc4ccccc4c(=N)n3c2n(C)c1=O
inactive: COLO 205 > 100 µM | HOP-62 > 100 µM | HT-29 > 100 µM | IGROV-1 > 100 µM | KM12 > 100 µM | MOLT-4 > 100 µM | NCI-H226 25.1 µM | OVCAR-4 > 100 µM | SF-295 > 100 µM | SK-MEL-5 > 100 µM | SK-OV-3 > 100 µM | SN12C > 100 µM | SNB-78 > 100 µM | UACC-62 > 100 µM

O=[N+]([O-])c1cccc(-c2oc(/C=N/c3ccccc3)c([N+](=O)[O-])c2-c2cccc([N+](=O)[O-])c2)c1
inactive: COLO 205 > 100 µM | HOP-62 > 100 µM | HT-29 > 100 µM | IGROV-1 > 100 µM | KM12 > 100 µM | MOLT-4 > 100 µM | NCI-H226 > 100 µM | RPMI-8226 > 100 µM | SF-295 > 100 µM | SK-MEL-5 > 100 µM | SK-OV-3 > 100 µM | SNB-78 > 100 µM | UACC-62 > 100 µM

Cc1ccc([S+]([O-])c2ccccc2[N+](=O)[O-])cc1 (stereo not given)
inactive: HOP-62 > 100 µM | HT-29 69.3 µM | IGROV-1 65.9 µM | KM12 54.6 µM | MOLT-4 41.3 µM | NCI-H226 30.5 µM | OVCAR-4 39.1 µM | RPMI-8226 52.8 µM | SF-295 > 100 µM | SK-MEL-5 70 µM | SK-OV-3 > 100 µM | SN12C 72.6 µM | SNB-78 > 100 µM | UACC-62 > 100 µM

COc1ccc2c(c1)CCc1c(C(C)=O)c3ccccc3n1C2
inactive: COLO 205 > 100 µM | HOP-62 26.4 µM | HT-29 > 100 µM | IGROV-1 19.3 µM | KM12 > 100 µM | MOLT-4 13.4 µM | OVCAR-4 28.3 µM | SF-295 12.7 µM | SK-MEL-5 6.19 µM | SN12C 49.5 µM | SNB-78 52 µM | UACC-62 25.6 µM

CC1=C(C(=O)NCc2ccccc2)C(c2ccccc2[N+](=O)[O-])C(C(=O)NCc2ccccc2)=C(C)N1
inactive: COLO 205 18.7 µM | HOP-62 20.6 µM | HT-29 12.8 µM | IGROV-1 18.4 µM | KM12 10.4 µM | MOLT-4 8.93 µM | NCI-H226 16.2 µM | OVCAR-4 10.2 µM | SF-295 12.4 µM | SK-MEL-5 13.1 µM | SN12C 12 µM | SNB-78 11.8 µM | UACC-62 8.49 µM

C#CCn1c(=O)[nH]c(=O)c2cccnc21
inactive: COLO 205 > 100 µM | HOP-62 > 100 µM | KM12 > 100 µM | MOLT-4 > 100 µM | NCI-H226 > 100 µM | OVCAR-4 > 100 µM | RPMI-8226 > 100 µM | SF-295 > 100 µM | SK-MEL-5 > 100 µM | SK-OV-3 > 100 µM | SN12C > 100 µM | SNB-78 > 100 µM

COc1ccc2c3ccc4c(c3n(C)c2c1)C(=O)C=CC4=O
inactive: COLO 205 18.8 µM | HOP-62 > 100 µM | HT-29 > 100 µM | IGROV-1 > 100 µM | MOLT-4 2.86 µM | NCI-H226 > 100 µM | OVCAR-4 29.6 µM | RPMI-8226 6.41 µM | SF-295 > 100 µM | SK-MEL-5 > 100 µM | SK-OV-3 > 100 µM | SN12C 40.4 µM | SNB-78 69.2 µM | UACC-62 40.3 µM

CS(=O)(=O)C1S(=O)(=O)OCCOS1(=O)=O
inactive: COLO 205 > 100 µM | HOP-62 > 100 µM | HT-29 > 100 µM | IGROV-1 > 100 µM | KM12 > 100 µM | MOLT-4 > 100 µM | NCI-H226 7.93 µM | OVCAR-4 > 100 µM | RPMI-8226 > 100 µM | SF-295 > 100 µM | SK-MEL-5 > 100 µM | SK-OV-3 > 100 µM | SN12C > 100 µM | SNB-78 > 100 µM | UACC-62 > 100 µM

CC(C)=CC(=O)C/C(=N\NC(N)=S)C(=O)Nc1ccc(Cl)cc1
inactive: COLO 205 > 100 µM | HT-29 > 100 µM | IGROV-1 > 100 µM | KM12 > 100 µM | MOLT-4 > 100 µM | NCI-H226 > 100 µM | OVCAR-4 > 100 µM | RPMI-8226 > 100 µM | SF-295 > 100 µM | SK-MEL-5 > 100 µM | SK-OV-3 > 100 µM | SN12C > 100 µM | SNB-78 > 100 µM | UACC-62 > 100 µM

Cc1cn(C2CC(O)C(COC(=O)c3ccccc3)O2)c(=O)[nH]c1=O (stereo not given)
inactive: COLO 205 > 100 µM | HOP-62 > 100 µM | HT-29 > 100 µM | IGROV-1 > 100 µM | KM12 > 100 µM | MOLT-4 > 100 µM | OVCAR-4 > 100 µM | RPMI-8226 > 100 µM | SF-295 > 100 µM | SK-MEL-5 > 100 µM | SN12C > 100 µM | SNB-78 > 100 µM | UACC-62 > 100 µM

CC(C)(C)C(=O)/C=C/c1ccc(Oc2ccccc2)cc1
inactive: HOP-62 27.4 µM | HT-29 8.51 µM | IGROV-1 30.8 µM | KM12 14.8 µM | MOLT-4 6.95 µM | NCI-H226 19.6 µM | RPMI-8226 8.95 µM | SF-295 24.8 µM | SK-MEL-5 16.2 µM | SK-OV-3 37.9 µM | SN12C 19.3 µM | SNB-78 25.5 µM
